Source: ChEMBL document CHEMBL4145446, “Development of tacrine-bifendate conjugates with improved cholinesterase inhibitory and pro-cognitive efficacy and reduced hepatotoxicity” (Eur J Med Chem, 2018)
The source made the active and inactive calls. The calls are words filed in the database; no cut-off is given here.

Experiments:
[1] = biological target: Amyloid-beta precursor protein (Homo sapiens) (UniProt P05067); assay: Inhibition of human self-induced amyloid beta (1 to 42) aggregation at 20 uM after 48 hrs by uranyl acetate staining based TEM analysis
Amyloid-beta precursor protein (Homo sapiens), sequence (P05067 whole entry): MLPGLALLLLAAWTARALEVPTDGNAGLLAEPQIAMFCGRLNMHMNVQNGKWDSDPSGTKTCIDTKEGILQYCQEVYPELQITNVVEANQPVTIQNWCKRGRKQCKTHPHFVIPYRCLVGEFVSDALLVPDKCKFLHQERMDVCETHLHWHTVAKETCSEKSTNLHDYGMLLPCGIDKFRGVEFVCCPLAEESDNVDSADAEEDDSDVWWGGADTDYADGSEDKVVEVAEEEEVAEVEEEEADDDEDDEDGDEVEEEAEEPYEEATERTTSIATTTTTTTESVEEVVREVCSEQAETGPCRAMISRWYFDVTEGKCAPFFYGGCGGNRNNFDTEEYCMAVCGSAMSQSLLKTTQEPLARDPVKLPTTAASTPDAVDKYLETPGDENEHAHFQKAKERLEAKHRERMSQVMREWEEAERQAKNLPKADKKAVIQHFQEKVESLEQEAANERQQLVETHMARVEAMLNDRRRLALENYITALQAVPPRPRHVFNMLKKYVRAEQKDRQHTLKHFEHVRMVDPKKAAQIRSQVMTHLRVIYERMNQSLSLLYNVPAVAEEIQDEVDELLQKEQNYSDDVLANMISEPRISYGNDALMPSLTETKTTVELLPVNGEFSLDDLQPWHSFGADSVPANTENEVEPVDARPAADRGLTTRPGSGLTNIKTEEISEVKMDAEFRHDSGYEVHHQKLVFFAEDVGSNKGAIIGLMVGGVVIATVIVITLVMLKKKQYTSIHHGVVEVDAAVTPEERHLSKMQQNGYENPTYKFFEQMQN

Mus musculus [2] = assay: Effect on spatial memory performance in ICR mouse model of scopalamine-induced memory impairment assessed as swimming speed at 20 umol equiv/kg, po pretreated for 30 mins followed by scopalamine treatment measured for 90 secs by Morris water maze test; format: ADME, organism-based; conditions: 0.025 h
[3] = Cytotoxicity against rat PC12 cells assessed as inhibition of cell viability at 10 uM by MTT assay relative to control; format: cell-based, PC-12; conditions: read-out: INH
[4] = Cytotoxicity against rat PC12 cells assessed as inhibition of cell viability at 1 uM by MTT assay relative to control; format: cell-based, PC-12; conditions: read-out: INH
Acetylcholinesterase = Acetylcholinesterase (Electrophorus electricus, UniProt O42275); assay: Inhibition of electric eel AChE using acetylthiocholine chloride as substrate preincubated for 15 mins followed by substrate addition measured every minute by Ellman's method
Acetylcholinesterase, sequence (O42275 whole entry): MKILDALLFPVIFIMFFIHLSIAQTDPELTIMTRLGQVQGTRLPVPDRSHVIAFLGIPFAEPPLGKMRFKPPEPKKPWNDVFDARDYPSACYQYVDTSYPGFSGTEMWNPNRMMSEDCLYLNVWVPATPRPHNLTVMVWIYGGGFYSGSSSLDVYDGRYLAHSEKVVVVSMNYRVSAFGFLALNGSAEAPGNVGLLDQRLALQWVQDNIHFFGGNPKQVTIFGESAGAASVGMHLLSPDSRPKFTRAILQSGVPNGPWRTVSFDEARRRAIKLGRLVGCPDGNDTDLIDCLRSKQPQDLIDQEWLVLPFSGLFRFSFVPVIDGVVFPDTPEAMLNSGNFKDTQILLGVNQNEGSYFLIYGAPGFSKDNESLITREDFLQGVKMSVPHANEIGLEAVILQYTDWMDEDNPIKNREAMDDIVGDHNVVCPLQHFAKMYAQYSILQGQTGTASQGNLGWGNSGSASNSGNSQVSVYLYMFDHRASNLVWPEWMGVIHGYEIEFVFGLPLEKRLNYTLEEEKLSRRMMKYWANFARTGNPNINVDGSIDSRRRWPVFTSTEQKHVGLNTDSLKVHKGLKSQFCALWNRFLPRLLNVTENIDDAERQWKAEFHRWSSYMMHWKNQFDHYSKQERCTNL

[5] = biological target: Acetylcholinesterase (Electrophorus electricus) (UniProt O42275); assay: Mixed-type inhibition of electric eel AChE at 25 to 100 nM using acetylthiocholine chloride as substrate preincubated for 15 mins followed by substrate addition by Lineweaver-Burk plot analysis
Acetylcholinesterase (Electrophorus electricus), sequence (O42275 24-633 limits assumed): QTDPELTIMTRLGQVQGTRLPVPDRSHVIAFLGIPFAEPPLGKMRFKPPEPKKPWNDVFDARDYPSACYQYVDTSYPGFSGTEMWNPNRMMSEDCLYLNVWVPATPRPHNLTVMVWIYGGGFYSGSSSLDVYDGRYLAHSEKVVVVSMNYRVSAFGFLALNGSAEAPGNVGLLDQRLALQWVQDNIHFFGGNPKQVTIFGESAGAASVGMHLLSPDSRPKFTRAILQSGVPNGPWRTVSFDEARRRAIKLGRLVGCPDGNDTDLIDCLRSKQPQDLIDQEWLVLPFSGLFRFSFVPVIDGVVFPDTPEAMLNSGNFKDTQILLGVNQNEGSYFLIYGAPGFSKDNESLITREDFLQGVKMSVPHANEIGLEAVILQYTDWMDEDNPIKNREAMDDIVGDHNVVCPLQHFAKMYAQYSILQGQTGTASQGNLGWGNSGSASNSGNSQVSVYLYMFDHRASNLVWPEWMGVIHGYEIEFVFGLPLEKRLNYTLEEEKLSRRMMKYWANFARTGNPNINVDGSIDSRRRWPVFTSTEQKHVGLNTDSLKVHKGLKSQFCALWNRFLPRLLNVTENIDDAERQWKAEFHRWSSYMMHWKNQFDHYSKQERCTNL

Mus musculus [6] = assay: Effect on spatial memory performance in ICR mouse model of scopalamine-induced memory impairment assessed as total distance travelled at 20 umol equiv/kg, po pretreated for 30 mins followed by scopalamine treatment measured for 90 secs by Morris water maze test; format: ADME, organism-based; conditions: 0.025 h
Mus musculus [7] = assay: Hepatotoxicity in Kunming mouse assessed as increase in serum ALT level at 106 mg/kg, ig after 48 hrs by colorimetric method relative to control; format: toxicity, organism-based; conditions: in vivo, po
Mus musculus [8] = assay: Hepatotoxicity in Kunming mouse assessed as increase in serum ASAT level at 106 mg/kg, ig after 48 hrs by colorimetric method relative to control; format: toxicity, organism-based; conditions: in vivo, po
[9] = Cytotoxicity against human HepG2 cells assessed as inhibition of cell viability at 1 uM by MTT assay relative to control; format: cell-based; conditions: read-out: INH
Mus musculus [10] = assay: Cognition enhancing effect in ICR mouse model of scopalamine-induced memory impairment assessed as improvement in target quadrant preference at 20 umol equiv/kg, po pretreated for 30 mins followed by scopalamine treatment measured on day 15 by Morris water maze test; format: functional, organism-based
L02 [11] = assay: Cytotoxicity against human HL7702 cells assessed as reduction in cell viability at 1 to 10 uM by MTT assay; format: cell-based; conditions: l02, 10 µM
L02 [12] = assay: Induction of apoptosis in human HL7702 cells at 10 uM in presence of PI3K inhibitor LY294002 by FITC staining based flow cytometry relative to control; format: cell-based; conditions: l02, 10 µM
Cholinesterase = Cholinesterase (Equus caballus, UniProt P81908); assay: Inhibition of equine serum BuChE using butyrylthiocholine chloride as substrate preincubated for 15 mins followed by substrate addition measured every minute by Ellman's method
Cholinesterase, sequence (P81908 whole entry): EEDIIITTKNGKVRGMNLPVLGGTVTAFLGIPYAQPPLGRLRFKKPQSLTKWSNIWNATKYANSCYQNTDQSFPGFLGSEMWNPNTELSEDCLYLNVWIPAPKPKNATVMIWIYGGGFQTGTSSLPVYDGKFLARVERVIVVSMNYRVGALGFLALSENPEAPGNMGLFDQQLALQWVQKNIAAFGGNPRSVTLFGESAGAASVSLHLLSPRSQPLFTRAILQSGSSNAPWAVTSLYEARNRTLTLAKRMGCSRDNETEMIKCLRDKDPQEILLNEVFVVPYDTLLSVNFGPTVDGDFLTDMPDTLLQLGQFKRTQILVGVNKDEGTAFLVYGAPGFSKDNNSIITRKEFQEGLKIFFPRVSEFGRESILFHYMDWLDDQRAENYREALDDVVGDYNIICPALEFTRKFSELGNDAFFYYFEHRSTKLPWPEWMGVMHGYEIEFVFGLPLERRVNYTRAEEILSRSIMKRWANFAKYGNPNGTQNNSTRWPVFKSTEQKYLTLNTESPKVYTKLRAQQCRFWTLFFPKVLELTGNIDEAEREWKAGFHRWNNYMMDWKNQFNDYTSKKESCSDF

[13] = Cytotoxicity against rat PC12 cells assessed as inhibition of cell viability at 50 uM by MTT assay relative to control; format: cell-based, PC-12; conditions: read-out: INH
[14] = Cytotoxicity against human HepG2 cells assessed as inhibition of cell viability at 50 uM by MTT assay relative to control; format: cell-based; conditions: read-out: INH
Mus musculus [15] = assay: Hepatotoxicity in Kunming mouse assessed as histomorphological changes in liver at 106 mg/kg, ig after 48 hrs by H and E staining based assay; format: toxicity, organism-based; conditions: in vivo, po
[16] = Cytotoxicity against human HepG2 cells assessed as inhibition of cell viability at 10 uM by MTT assay relative to control; format: cell-based; conditions: read-out: INH
[17] = biological target: Cholinesterase (Equus caballus) (UniProt P81908); assay: Inhibition of equine serum BuChE at 50 uM using butyrylthiocholine chloride as substrate preincubated for 15 mins followed by substrate addition measured every minute by Ellman's method
Cholinesterase (Equus caballus), sequence (P81908 whole entry): as above

Mus musculus [18] = assay: Hepatotoxicity in Kunming mouse assessed as serum ASAT level at 106 mg/kg, ig cotreated with THA after 48 hrs by colorimetric method (reference value: 101.5 +/- 22.3 U/L); format: toxicity, organism-based; conditions: in vivo, po
Mus musculus [19] = assay: Hepatotoxicity in Kunming mouse assessed as serum ALT level at 106 mg/kg, ig cotreated with THA after 48 hrs by colorimetric method (reference value: 42.7 +/- 6.3 U/L); format: toxicity, organism-based; conditions: in vivo, po
Mus musculus [20] = assay: Hepatotoxicity in Kunming mouse assessed as serum ALT level at 106 mg/kg, ig after 48 hrs by colorimetric method (reference value: 42.7 +/- 6.3 U/L); format: toxicity, organism-based; conditions: in vivo, po
[21] = biological target: Acetylcholinesterase (Electrophorus electricus) (UniProt O42275); assay: Inhibition of electric eel AChE at 50 uM using acetylthiocholine chloride as substrate preincubated for 15 mins followed by substrate addition measured every minute by Ellman's method
Mus musculus [22] = assay: Hepatotoxicity in Kunming mouse assessed as inflammatory cell infiltration in liver at 35 mg/kg, ig cotreated with THA after 48 hrs by H and E staining based assay; format: toxicity, organism-based; conditions: in vivo, po
Mus musculus [23] = assay: Hepatotoxicity in Kunming mouse assessed as serum ASAT level at 106 mg/kg, ig after 48 hrs by colorimetric method (reference value: 101.5 +/- 22.3 U/L); format: toxicity, organism-based; conditions: in vivo, po

SMILES | cytotoxicity at 10 µM [3] | cytotoxicity at 1 µM [4] | IC50 (Acetylcholinesterase) | cytotoxicity at 1 µM [9] | IC50 (Cholinesterase) | cytotoxicity at 50 µM [13] | cytotoxicity at 50 µM [14] | cytotoxicity at 10 µM [16] | also measured
COC(=O)c1cc(OC)c2c(c1-c1c(C(=O)NCCCCCCCCCCNc3c4c(nc5ccccc35)CCCC4)cc(OC)c3c1OCO3)OCO2 | < 5% | < 5% | 27.3 nM | 6.71% | 8.63 nM | 7.84% | 23.1% | 10.8% | inhibition [1]: Active; Activity (Mus musculus [2]): Non-Toxic; inhibition [5]: Active; Activity (Mus musculus [6]): Non-Toxic; fold change (FC) (Mus musculus [7]): 1.1; fold change (FC) (Mus musculus [8]): 1.1; Activity (Mus musculus [10]): Active; Activity (L02 [11]): Non-Toxic; Activity (L02 [12]): 14.1%; Activity (Mus musculus [15]): Non-Toxic
COC(=O)c1cc(OC)c2c(c1-c1c(C(=O)NCCCCCCNc3c4c(nc5ccccc35)CCCC4)cc(OC)c3c1OCO3)OCO2 | < 5% | 5.26% | 616 nM | < 5% | 4.02 nM | 27.3% | 34.4% | < 5% | –
COC(=O)c1cc(OC)c2c(c1-c1c(C(=O)NCCCCCCCCNc3c4c(nc5ccccc35)CCCC4)cc(OC)c3c1OCO3)OCO2 | < 5% | < 5% | 945 nM | 5.81% | 6.5 nM | 38.9% | 51.9% | 9.53% | –
COC(=O)c1cc(OC)c2c(c1-c1c(C(=O)OC)cc(OC)c3c1OCO3)OCO2 [BIFENDATE] | < 5% | < 5% | > 50000 nM | < 5% | > 50000 nM | 7.21% | 11.6% | 8.45% | inhibition [17]: inactive; Activity (Mus musculus [18]): 110 U/L; Activity (Mus musculus [19]): 41.9 U/L; Activity (Mus musculus [20]): 39.3 U/L; inhibition [21]: inactive; Activity (Mus musculus [22]): Non-Toxic; Activity (Mus musculus [23]): 105 U/L; Activity (Mus musculus [15]): Non-Toxic
COC(=O)c1cc(OC)c2c(c1-c1c(C(=O)NCCCCNc3c4c(nc5ccccc35)CCCC4)cc(OC)c3c1OCO3)OCO2 | < 5% | < 5% | 923 nM | < 5% | 75.5 nM | 19.3% | 19.5% | 11.9% | –
COC(=O)c1cc(OC)c2c(c1-c1c(C(=O)NCCCCCCCCCCCCNc3c4c(nc5ccccc35)CCCC4)cc(OC)c3c1OCO3)OCO2 | < 5% | < 5% | 52.1 nM | 7.35% | 35.3 nM | 7.76% | 46.1% | 13.8% | –
COc1cc(/C=C/C(=O)CC(=O)/C=C/c2ccc(O)c(OC)c2)ccc1O | – | – | – | – | – | – | – | – | inhibition [1]: Active
